{"source": "ChEMBL document CHEMBL5465560", "about": "“Selectivity Literature for EUbOPEN Chemogenomic Library” (2024)", "key": {"[1]": {"target": "Ribosomal protein S6 kinase alpha-5 (Homo sapiens) (UniProt O75582)", "sequence (O75582 whole entry, looked up)": "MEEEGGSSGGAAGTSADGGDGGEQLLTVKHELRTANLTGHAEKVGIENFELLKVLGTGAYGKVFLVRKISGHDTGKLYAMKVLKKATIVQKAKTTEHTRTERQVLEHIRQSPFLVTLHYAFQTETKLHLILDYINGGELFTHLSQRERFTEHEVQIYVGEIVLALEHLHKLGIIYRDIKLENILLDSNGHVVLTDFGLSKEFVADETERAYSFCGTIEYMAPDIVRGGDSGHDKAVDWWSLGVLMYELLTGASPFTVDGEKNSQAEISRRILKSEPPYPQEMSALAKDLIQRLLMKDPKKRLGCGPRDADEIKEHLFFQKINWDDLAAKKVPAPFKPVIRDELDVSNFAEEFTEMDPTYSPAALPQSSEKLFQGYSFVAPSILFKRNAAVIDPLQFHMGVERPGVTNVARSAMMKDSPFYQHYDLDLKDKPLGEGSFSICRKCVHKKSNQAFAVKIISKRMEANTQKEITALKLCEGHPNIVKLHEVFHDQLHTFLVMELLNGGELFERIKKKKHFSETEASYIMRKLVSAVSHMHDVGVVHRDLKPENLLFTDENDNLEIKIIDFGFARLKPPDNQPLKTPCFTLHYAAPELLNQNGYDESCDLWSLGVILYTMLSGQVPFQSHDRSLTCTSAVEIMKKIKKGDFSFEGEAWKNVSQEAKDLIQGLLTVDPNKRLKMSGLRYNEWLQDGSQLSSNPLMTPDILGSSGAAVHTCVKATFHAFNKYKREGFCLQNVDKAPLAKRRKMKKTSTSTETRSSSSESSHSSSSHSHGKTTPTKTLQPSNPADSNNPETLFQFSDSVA", "test": "Selectivity interaction (ProQinase) EUB0000171b RPS6KA5"}, "[2]": {"target": "5-hydroxytryptamine receptor 2B (Homo sapiens, UniProt P41595)", "sequence (P41595 whole entry)": "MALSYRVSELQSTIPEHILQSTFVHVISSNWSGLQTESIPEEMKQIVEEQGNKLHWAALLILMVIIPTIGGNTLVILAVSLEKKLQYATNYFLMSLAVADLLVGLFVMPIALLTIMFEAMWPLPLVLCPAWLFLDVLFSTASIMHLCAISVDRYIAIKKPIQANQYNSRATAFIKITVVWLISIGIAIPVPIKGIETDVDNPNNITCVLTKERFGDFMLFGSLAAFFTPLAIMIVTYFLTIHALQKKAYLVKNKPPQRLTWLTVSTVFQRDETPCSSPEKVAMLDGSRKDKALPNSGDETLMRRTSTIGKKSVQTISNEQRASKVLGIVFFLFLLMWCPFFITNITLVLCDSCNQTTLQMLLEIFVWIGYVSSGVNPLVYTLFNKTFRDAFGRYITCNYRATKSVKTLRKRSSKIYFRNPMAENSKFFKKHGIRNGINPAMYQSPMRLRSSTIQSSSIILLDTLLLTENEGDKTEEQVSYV", "test": "Selectivity interaction (Safety Panel 44tm (Eurofins)) EUB0000162b HTR2B", "settings": "at 10 µM"}, "[3]": {"target": "T1, Tyrosine-protein kinase JAK3 (Homo sapiens) (UniProt P52333)", "T1 sequence (whole entry)": "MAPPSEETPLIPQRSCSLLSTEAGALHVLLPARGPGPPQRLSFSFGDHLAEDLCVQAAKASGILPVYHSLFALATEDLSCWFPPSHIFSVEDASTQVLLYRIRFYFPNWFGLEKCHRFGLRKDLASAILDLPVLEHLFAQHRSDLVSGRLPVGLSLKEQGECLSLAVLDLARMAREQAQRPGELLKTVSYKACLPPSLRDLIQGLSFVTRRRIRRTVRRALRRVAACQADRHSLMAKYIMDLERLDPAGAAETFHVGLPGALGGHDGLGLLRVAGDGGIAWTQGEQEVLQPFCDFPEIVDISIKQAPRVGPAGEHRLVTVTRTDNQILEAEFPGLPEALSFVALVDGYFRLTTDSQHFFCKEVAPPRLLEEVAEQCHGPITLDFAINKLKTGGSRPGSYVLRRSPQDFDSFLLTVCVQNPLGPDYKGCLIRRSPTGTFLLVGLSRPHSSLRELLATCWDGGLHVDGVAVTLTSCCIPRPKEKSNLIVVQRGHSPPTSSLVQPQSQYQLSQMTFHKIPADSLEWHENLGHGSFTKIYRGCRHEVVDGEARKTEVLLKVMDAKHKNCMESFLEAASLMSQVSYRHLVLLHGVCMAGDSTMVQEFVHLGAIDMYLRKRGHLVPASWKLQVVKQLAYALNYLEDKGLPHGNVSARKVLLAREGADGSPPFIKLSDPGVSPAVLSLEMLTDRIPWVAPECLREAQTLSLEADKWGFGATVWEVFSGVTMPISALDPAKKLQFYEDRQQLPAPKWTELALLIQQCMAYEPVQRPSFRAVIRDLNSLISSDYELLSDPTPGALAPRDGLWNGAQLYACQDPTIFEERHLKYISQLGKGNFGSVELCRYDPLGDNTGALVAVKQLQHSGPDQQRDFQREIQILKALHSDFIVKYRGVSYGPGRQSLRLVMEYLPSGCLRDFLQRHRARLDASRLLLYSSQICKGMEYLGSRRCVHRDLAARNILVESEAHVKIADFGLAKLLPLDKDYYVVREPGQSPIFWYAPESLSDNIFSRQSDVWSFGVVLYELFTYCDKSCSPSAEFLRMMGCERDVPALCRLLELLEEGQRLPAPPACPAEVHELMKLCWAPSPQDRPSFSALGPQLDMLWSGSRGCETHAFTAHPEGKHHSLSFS", "test": "Selectivity interaction (KinomeScan (DiscoverX)) EUB0000695a JAK3", "settings": "at 100 nM"}, "Insulin receptor": {"target": "Insulin receptor (Homo sapiens, UniProt P06213)", "sequence (P06213 28-758 limits assumed)": "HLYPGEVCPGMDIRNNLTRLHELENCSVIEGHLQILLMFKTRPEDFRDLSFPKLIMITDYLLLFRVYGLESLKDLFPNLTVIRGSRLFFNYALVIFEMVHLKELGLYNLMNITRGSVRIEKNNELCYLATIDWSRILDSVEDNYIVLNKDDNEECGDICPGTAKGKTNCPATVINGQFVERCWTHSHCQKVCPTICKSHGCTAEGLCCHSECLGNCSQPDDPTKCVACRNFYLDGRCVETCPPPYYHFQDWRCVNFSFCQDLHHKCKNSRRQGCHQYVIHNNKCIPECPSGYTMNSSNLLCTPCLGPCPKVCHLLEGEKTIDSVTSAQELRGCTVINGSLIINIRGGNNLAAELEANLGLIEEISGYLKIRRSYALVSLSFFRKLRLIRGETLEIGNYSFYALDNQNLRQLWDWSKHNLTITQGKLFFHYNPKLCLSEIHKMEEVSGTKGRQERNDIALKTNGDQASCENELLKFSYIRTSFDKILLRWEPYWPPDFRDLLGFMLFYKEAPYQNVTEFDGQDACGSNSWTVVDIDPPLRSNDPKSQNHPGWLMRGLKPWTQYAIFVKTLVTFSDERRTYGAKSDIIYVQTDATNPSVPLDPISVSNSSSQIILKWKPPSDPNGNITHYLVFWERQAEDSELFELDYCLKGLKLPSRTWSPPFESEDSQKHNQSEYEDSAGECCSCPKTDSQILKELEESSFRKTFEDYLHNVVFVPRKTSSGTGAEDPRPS", "sequence (P06213 763-1382 limits assumed)": "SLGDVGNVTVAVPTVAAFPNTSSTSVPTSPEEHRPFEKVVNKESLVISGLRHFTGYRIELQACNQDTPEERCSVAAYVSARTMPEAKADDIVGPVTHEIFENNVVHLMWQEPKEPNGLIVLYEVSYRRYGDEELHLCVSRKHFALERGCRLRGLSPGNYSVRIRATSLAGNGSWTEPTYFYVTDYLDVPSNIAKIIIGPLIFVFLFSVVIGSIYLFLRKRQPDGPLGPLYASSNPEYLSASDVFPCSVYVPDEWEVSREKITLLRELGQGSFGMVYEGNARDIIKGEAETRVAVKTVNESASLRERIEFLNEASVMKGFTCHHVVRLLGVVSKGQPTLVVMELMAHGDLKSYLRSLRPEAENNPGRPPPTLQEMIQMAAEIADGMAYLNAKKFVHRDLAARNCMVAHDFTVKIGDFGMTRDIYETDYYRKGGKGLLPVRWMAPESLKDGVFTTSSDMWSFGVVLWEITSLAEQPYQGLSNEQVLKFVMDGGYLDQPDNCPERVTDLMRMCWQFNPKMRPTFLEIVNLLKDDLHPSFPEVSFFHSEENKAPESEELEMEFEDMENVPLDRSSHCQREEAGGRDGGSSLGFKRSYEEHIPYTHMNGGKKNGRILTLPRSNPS", "settings": "at 3 µM"}, "[4]": {"target": "T2, Myosin light chain kinase family member 4 (Homo sapiens) (UniProt Q86YV6)", "T2 sequence (whole entry)": "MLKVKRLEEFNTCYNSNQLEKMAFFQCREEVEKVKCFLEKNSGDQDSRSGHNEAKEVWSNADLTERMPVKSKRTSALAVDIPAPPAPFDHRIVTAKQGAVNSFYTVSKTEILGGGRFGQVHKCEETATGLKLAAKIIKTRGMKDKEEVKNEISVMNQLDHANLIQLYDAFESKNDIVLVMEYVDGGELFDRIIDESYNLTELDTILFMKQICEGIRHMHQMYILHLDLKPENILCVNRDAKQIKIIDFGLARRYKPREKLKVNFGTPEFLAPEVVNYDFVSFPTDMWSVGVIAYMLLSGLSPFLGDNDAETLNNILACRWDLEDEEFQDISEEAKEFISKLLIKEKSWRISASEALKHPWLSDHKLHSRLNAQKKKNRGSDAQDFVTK", "test": "Selectivity interaction (KinomeScan (DiscoverX)) EUB0000045b MYLK4"}, "[5]": {"target": "T3, Dual serine/threonine and tyrosine protein kinase (Homo sapiens) (UniProt Q6XUX3)", "T3 sequence (whole entry)": "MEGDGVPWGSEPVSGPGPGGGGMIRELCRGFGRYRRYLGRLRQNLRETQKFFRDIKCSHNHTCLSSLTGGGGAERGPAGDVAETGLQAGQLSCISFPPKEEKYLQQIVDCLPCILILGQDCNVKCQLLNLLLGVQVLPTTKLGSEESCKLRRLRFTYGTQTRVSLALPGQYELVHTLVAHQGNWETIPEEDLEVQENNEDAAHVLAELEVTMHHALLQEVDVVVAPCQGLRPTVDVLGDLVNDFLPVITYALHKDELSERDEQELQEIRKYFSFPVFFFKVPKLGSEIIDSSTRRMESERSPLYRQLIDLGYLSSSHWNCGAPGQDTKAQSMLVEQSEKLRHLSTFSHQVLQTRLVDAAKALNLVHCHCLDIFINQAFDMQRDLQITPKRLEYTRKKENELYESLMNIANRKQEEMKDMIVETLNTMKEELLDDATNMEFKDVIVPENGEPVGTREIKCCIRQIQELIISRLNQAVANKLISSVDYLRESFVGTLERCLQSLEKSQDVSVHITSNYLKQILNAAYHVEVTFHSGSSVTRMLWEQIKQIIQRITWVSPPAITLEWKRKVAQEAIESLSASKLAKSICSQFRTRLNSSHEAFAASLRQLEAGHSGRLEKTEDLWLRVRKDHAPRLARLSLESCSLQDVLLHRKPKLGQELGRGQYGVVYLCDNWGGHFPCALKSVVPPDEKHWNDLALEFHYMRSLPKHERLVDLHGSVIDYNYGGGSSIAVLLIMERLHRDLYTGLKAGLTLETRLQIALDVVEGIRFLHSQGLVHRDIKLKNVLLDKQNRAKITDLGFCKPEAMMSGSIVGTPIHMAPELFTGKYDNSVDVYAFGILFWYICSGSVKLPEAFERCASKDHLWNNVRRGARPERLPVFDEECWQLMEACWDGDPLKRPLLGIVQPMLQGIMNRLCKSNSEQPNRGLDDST", "test": "Selectivity interaction (KinomeScan (DiscoverX)) EUB0001550a DSTYK", "settings": "at 1 µM"}}}
{"smiles": "C=CC(=O)Nc1cccc(C(=O)Nc2ccc(Nc3cc(-c4[nH]c(SC)nc4C)ccn3)cc2)c1", "values": [{"measurement": "% of control", "setting": "[1]; at 1 µM", "value": 94, "unit": "%"}, {"measurement": "% of control", "setting": "[1]; at 5 µM", "value": 87, "unit": "%"}]}
{"smiles": "CN(C)C(=O)Cn1cc(-c2ccc(-c3cncc4ccccc34)cc2)cn1", "values": [{"measurement": "% of control", "setting": "[2]", "value": 34, "unit": "%"}]}
{"smiles": "Cc1cc(F)c(C(=O)Nc2cccc(-c3nncn3C(C)C)n2)cc1-n1cnc(C2CC2)c1", "values": [{"measurement": "% of control", "setting": "[3]", "value": 100, "unit": "%"}]}
{"smiles": "CCc1cc(Nc2nccc(-c3c(-c4ccc(OC)c(C(=O)Nc5c(F)cccc5F)c4)nc4ccccn34)n2)c(OC)cc1N1CCC(N2CCN(S(C)(=O)=O)CC2)CC1", "values": [{"measurement": "% of inhibition", "setting": "Insulin receptor", "value": 69, "unit": "%"}]}
{"smiles": "C=CC(=O)Nc1cc(-n2c(=O)ccc3cnc4ccc(-c5ccc(NS(C)(=O)=O)cc5)cc4c32)ccc1C", "values": [{"measurement": "% of control", "setting": "[4]; at 1 µM", "value": 96, "unit": "%"}, {"measurement": "% of control", "setting": "[4]; at 10 µM", "value": 97, "unit": "%"}]}
{"smiles": "CN(C)CC#Cc1ccc2[nH]c3c(c2c1)-c1nc(N)ncc1CCC3", "values": [{"measurement": "% of control", "setting": "[5]", "value": 5.2, "unit": "%"}]}
